Each structure is given as a SMILES string. Read-outs that look alike come from different tables or passages of the source.

The target of this experiment is T1, LRRK2(G2019S mutation, GST-LRRK2(amino acids 970-2527)) (Homo sapiens, UniProt Q5S007, G2019S).
T1 construct: GST-LRRK2(amino acids 970-2527); GST (N); purchased Life Technologies Corporation
The experiment can be described thus: LRRK2 Km ATP LanthaScreen Assay. It is filed as biochemical. The essentials: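 IC50 values are means of several runs in the Km-ATP LanthaScreen format, analysed by curve fitting of the LanthaScreen read-out.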

[1] abbreviates: Km ATP LanthaScreen Assay, LRRK2 G2019S, mean IC50 values, read-out: LRRK2 IC50.
Where [2] appears, read: Km ATP LanthaScreen, mean IC50 of several tests, read-out: LRRK2 IC50.
[3] abbreviates: Km ATP LanthaScreen Assay; LRRK2 G2019S; mean IC50 values; Examples 185-215; read-out: LRRK2 IC5).

T1 sequence (Q5S007 970-2527 G2019S): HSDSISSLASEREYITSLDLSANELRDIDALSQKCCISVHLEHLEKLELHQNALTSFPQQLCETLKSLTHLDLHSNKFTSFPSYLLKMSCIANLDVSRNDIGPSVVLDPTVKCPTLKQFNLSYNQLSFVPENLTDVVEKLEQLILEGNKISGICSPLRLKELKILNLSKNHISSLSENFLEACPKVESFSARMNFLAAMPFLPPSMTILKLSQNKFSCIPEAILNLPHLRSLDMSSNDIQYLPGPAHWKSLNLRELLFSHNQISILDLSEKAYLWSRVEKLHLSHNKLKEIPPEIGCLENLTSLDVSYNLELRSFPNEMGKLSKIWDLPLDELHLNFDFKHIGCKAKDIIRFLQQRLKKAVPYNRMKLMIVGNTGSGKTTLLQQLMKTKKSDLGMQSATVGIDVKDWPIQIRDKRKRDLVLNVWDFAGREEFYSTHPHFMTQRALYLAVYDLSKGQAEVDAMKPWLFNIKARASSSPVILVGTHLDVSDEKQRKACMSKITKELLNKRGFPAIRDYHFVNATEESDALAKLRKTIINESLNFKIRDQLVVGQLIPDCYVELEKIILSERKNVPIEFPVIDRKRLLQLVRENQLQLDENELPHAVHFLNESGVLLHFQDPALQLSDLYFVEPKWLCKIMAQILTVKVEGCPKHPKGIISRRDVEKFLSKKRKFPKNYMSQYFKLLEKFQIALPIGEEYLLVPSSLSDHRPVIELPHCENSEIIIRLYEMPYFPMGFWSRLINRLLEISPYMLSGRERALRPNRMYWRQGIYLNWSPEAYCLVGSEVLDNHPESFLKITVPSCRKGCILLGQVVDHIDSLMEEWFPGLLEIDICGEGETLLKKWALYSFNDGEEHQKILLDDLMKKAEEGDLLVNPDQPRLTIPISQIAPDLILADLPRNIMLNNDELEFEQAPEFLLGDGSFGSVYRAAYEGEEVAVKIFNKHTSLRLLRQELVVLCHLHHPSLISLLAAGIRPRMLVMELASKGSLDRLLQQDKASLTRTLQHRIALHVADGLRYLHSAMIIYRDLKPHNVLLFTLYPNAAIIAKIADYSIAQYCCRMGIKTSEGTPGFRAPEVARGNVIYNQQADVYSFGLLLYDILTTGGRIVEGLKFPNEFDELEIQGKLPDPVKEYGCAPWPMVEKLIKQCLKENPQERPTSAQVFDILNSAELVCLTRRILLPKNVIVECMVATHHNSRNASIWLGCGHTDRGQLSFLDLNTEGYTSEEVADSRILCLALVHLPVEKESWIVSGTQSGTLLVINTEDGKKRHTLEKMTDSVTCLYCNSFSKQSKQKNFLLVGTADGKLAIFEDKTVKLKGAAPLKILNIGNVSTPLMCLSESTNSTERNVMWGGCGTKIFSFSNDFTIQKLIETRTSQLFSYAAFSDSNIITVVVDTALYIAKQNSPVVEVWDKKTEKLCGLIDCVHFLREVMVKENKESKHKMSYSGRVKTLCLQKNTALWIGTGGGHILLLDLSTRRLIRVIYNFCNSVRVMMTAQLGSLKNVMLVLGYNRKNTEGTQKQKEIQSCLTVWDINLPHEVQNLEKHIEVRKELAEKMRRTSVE

Take `C[C@@H]1C[C@@H](O)CN1c1cc(-c2n[nH]c3ccccc23)ccn1` [Example 51]: the IC50 under setting [1] is 0.033 µM.

Regarding `CCOc1ccc2[nH]nc(-c3ccnc(N4CC[C@@H](OC)C4)c3)c2c1` [Example 227], the IC50 under setting [1] is 0.0113 µM.

With `CC(C)Oc1ccc2[nH]nc(-c3ccnc(N4CCCC(CO)C4)c3)c2c1` (stereo not drawn) [Example 131], the IC50 under setting [1] was 0.0015 µM.

As for `Oc1cc(-c2ccc3[nH]nc(-c4ccnc(N5CCNCC5)c4)c3c2)ccn1` [Example 120], the IC50 under setting [2] worked out at 0.0034 µM.

For the compound `FC(F)(F)CN1CCN(c2cc(-c3n[nH]c4ccc(OC(F)(F)F)cc34)ccn2)CC1` [Example 237], the IC50 under setting [1] was determined as 0.279 µM.

For the compound `CC(C)Oc1ccc2[nH]nc(-c3ccnc(N4CCOC5(CC5)C4)c3)c2c1` [Example 378], under setting [2], the IC50 came out at 0.0075 µM.

In the case of `CC(C)Oc1ccc2[nH]nc(-c3ccnc(N4CCC(n5cncn5)CC4)c3)c2c1` [Example 187], under setting [3], the IC50 turned out to be 0.004 µM.

As for `c1cncc(N2CCN(c3cc(-c4n[nH]c5ccccc45)ccn3)CC2)c1` [Example 24], under setting [1], the IC50 is 0.018 µM.

Take `CC(C)Oc1ccc2[nH]nc(-c3ccnc(N4CCC(F)(F)C4)c3)c2c1` [Example 286]: the IC50 under setting [2] is 0.0055 µM.

For the compound `c1ccc2c(-c3ccnc(N4CC5CCC(C4)O5)c3)n[nH]c2c1` [Example 402], under setting [1], the IC50 is 0.027 µM.

As for `CC(C)Oc1ccc2[nH]nc(-c3ccnc(NS(=O)(=O)c4ccc(C5(C#N)CC5)cc4)c3)c2c1` [Example 263], the IC50 under setting [2] was 0.0608 µM.

`Cn1cc(-c2ccc3[nH]nc(-c4ccnc(N5CCCCC5)c4)c3c2)cn1` [Example 266]: the IC50 under setting [2] stood at 0.0024 µM.

Take `c1cncc(-c2ccc3[nH]nc(-c4ccnc(N5CCOCC5)c4)c3c2)c1` [Example 98]: under setting [2], the IC50 was 0.0034 µM.

Regarding `CC(O)c1ccc2[nH]nc(-c3ccnc(N4CCOCC4)c3)c2c1` (stereo not drawn) [Example 126], under setting [2], the IC50 is 0.0099 µM.

With `CC(C)Oc1ccc2[nH]nc(-c3ccnc(N4CCC(F)(F)CC4)c3)c2c1` [Example 287], under setting [2], the IC50 was determined as 0.014 µM.

Regarding `CCOc1ccc2[nH]nc(-c3ccnc(N4CCC(OC)CC4)c3)c2c1` [Example 296], the IC50 under setting [2] was found to be 0.0075 µM.

In the case of `O=C1CCCC2(CCN(c3cc(-c4n[nH]c5ccccc45)ccn3)CC2)N1` [Example 61], the IC50 under setting [1] is 0.014 µM.

Take `CCCOc1ccc2[nH]nc(-c3ccnc(N4CCN(S(C)(=O)=O)CC4)c3)c2c1` [Example 295]: the IC50 under setting [2] came out at 0.017 µM.

For the compound `CC(C)Oc1ccc2[nH]nc(-c3ccnc(N4CCCN(c5ncccn5)CC4)c3)c2c1` [Example 209], the IC50 under setting [3] came to 0.0255 µM.

In the case of `Cc1noc(C2CN(c3cc(-c4n[nH]c5ccc(-c6cnn(C)c6)cc45)ccn3)C2)n1` [Example 275], the IC50 under setting [2] came out at 0.0056 µM.

In the case of `c1ccc(COc2ccnc(-c3ccc4[nH]nc(-c5ccnc(N6CCOCC6)c5)c4c3)n2)cc1` [Example 101], the IC50 under setting [1] came out at 0.182 µM.

`CC(C)Oc1ccc2[nH]nc(-c3ccnc(N4CC(C(=O)O)C4)c3)c2c1` [Example 284]: the IC50 under setting [2] came out at 0.0024 µM.

On to `OC1(c2ccccn2)CCN(c2cc(-c3n[nH]c4ccccc34)ccn2)CC1` [Example 23], for which the IC50 under setting [1] was determined as 0.02 µM.

With `CC(C)Oc1ccc2[nH]nc(-c3ccnc(NC(=O)C4CCCC4)c3)c2c1` [Example 156], the IC50 under setting [1] came to 0.0531 µM.

In the case of `CC(C)Oc1ccc2[nH]nc(-c3ccnc(N4C5CCCC4CC5)c3)c2c1` [Example 179], under setting [1], the IC50 was found to be 0.0177 µM.

As for `O=C(c1ccccc1)c1ccc2[nH]nc(-c3ccnc(N4CCOCC4)c3)c2c1` [Example 107], the IC50 under setting [2] came out at 0.0034 µM.

Take `OCCOc1ccc2[nH]nc(-c3ccnc(N4CCOCC4)c3)c2c1` [Example 363]: the IC50 under setting [2] turned out to be 0.0093 µM.

For the compound `Cn1cc(-c2ccc3[nH]nc(-c4ccnc(N5C[C@H](F)[C@@H](F)C5)c4)c3c2)cn1` [Example 271], under setting [2], the IC50 is 0.0022 µM.

On to `CC(C)Oc1ccc2[nH]nc(-c3ccnc(NC(=O)C4CCOCC4)c3)c2c1` [Example 164], for which, under setting [1], the IC50 came to 0.0277 µM.

On to `CC(C)Oc1ccc2[nH]nc(-c3ccnc(N4CCCC(O)C4)c3)c2c1` (stereo not drawn) [Example 170], for which, under setting [1], the IC50 was 0.0064 µM.

Source of the values: US9440952B2, “Compounds inhibiting leucine-rich repeat kinase enzyme activity” (Merck Sharp & Dohme Corp., priority 2013, dated 2016).
